The record followed here is patent publication US20230295199A1, “PHOSPHOLIPID” (NIPPON FINE CHEMICAL CO., LTD., priority 2021, published 2023).

A short description of data set [1]: siRNA encapsulation efficiency of lipid particles (RiboGreen reagent). The class given is physicochemical. The following applies: lipid 1:DPPC:Chol 45:10:45, siRNA/lipid molar ratio 1/7000, named phospholipid as lipid 1. How it is done: (§1) siRNA was added to 1 mM citrate buffer (pH 4.0), thereby preparing an acidic aqueous solution of siRNA (25° C., siRNA concentration: 71.4 nM). Separately, lipids (lipid 1: DOP-DEDA, DOP-PPZ, or DOR-MPPZ; lipid 2: dipalmitoyl phosphatidylcholine (DPPC); and lipid 3: cholesterol (Chol)) at a molar ratio of 45:10:45 (lipid 1:lipid 2:lipid 3) were added to ethanol, thereby preparing a phospholipid alcohol solution (25° C., lipid concentration: 2.5 mM). A 5-fold volume of the acidic aqueous solution of siRNA was added to the phospholipid alcohol solution (siRNA/lipid molar ratio=1/7000), and a microchannel (KeyChem-Basic, YMC Co., Ltd.) was used to obtain lipid particles. Finally, ethanol was removed by dialysis.
Further, the encapsulation efficiency of RNA was measured in the following manner. The measurement was performed using an RNA assay reagent (RiboGreen reagent, Thermo Fisher Scientific), specifically as described below. […] The plate was shaken for 5 minutes, and the fluorescence intensity in each well was measured. The encapsulation efficiency of siRNA in the lipid particles was calculated using the following equation: the encapsulation efficiency (%)=(the fluorescence intensity of total siRNA−the fluorescence intensity of free siRNA)/(the fluorescence intensity of total siRNA), with the measured fluorescence intensity.

Data set [2] is described as follows: Particle size and polydispersity index of lipid particles (Zetasizer Nano ZS). The class given is physicochemical. The following applies: siRNA lipid particles, lipid 1:DPPC:Chol 45:10:45, named phospholipid as lipid 1; diluted 50-fold with RNase-free water. The method, then:
as §1
The lipid particles were diluted 50-fold with RNase-free water, and then the particle size and polydispersity index (PDI) were measured with a Zetasizer Nano ZS (Malvern). The lipid. particles were also diluted 50-fold with a buffer (pH=4.0, 5.0, 6.0, or 7.0), and the ζ-potential was then measured.

For the molecule `CCCCCCCC/C=C\CCCCCCCC(=O)OC[C@H](COP(=O)(O)OCCN1CCNCC1)OC(=O)CCCCCCC/C=C\CCCCCCCC` [DOP-PPZ, 1,2-di-(9Z-octadecenoyl)-sn-glycero-3-phosphoethylpiperazine], in data set [1], the “siRNA encapsulation efficiency (%)*” value was 94 ± 4%. In data set [2], the “Particle size (nm)” value is given as 79 ± 3 nm and the Pdl came to 0.35 ± 0.01.
For the molecule “Dioleoylphosphate-Diethylenediamine Conjugate [DOP-DEDA, reference compound]”, the “siRNA encapsulation efficiency (%)*” value in data set [1] is recorded as 98 ± 7%. Also, in data set [2], the “Particle size (nm)” value is 100 ± 3 nm and the Pdl turned out to be 0.11 ± 0.06.
